ChEMBL document CHEMBL1123539, “[p-[(Thienylcarbonyl)amino]phenoxy]propanolamines derivatives as diuretic and beta-adrenergic receptor blocking agents” (1986)

Experiments:
[1] = biological target: Beta-2 adrenergic receptor (Canis lupus familiaris) (UniProt P54833)
Description: The compound was tested for beta-2 adrenergic receptor blocking activity in dogs

Rattus norvegicus [2] = experiment: Compound was tested for oral salidiuretic activity (control/drug treatment value) in rats expressed in Na+, mequiv/6 hr at a dose of 128 mg/kg; 0.198/0.885; format: functional, Urine
Rattus norvegicus [3] = experiment: Compound was tested for oral salidiuretic activity (control/drug treatment value) in rats expressed as urinary output. at a dose of 128 mg/kg; 8.17/12.83; format: functional, Urine
[4] = biological target: Beta-1 adrenergic receptor (Homo sapiens) (UniProt P08588); conditions: Canis lupus familiaris
Description: Compound was tested for beta-1 adrenergic receptor blocking activity in dogs

Rattus norvegicus [5] = experiment: Compound was tested for oral salidiuretic activity (control/drug treatment value) in rats expressed in Na+, mequiv/6 hr at a dose of 128 mg/kg; 0.163/0.133; format: functional, Urine
Rattus norvegicus [6] = experiment: Compound was tested for oral salidiuretic activity (control/drug treatment value) in rats expressed as urinary output. at a dose of 128 mg/kg; 8.72/8.02; format: functional, Urine
Rattus norvegicus [7] = experiment: Compound was tested for oral salidiuretic activity (control/drug treatment value) in rats expressed in Na+, mequiv/6 hr at a dose of 128 mg/kg; 0.163/0.139; format: functional, Urine
Rattus norvegicus [8] = experiment: Compound was tested for oral salidiuretic activity (control/drug treatment value) in rats expressed as urinary output. at a dose of 128 mg/kg; 8.72/8.15; format: functional, Urine
Rattus norvegicus [9] = experiment: Compound was tested for oral salidiuretic activity (control/drug treatment value) in rats expressed in Na+, mequiv/6 hr at a dose of 32 mg/kg; 0.177/0.305; format: functional, Urine
Rattus norvegicus [10] = experiment: Compound was tested for oral salidiuretic activity (control/drug treatment value) in rats expressed as urinary output. at a dose of 32 mg/kg; 7.87/8.10; format: functional, Urine
Rattus norvegicus [11] = experiment: Compound was tested for oral salidiuretic activity (control/drug treatment value) in rats expressed in Na+, mequiv/6 hr at a dose of 128 mg/kg; 0.186/0.243; format: functional, Urine
Rattus norvegicus [12] = experiment: Compound was tested for oral salidiuretic activity (control/drug treatment value) in rats expressed as urinary output. at a dose of 128 mg/kg; 8.42/6.75; format: functional, Urine
Rattus norvegicus [13] = experiment: Compound was tested for oral salidiuretic activity (control/drug treatment value) in rats expressed as urinary output. at a dose of 64 mg/kg; 7.33/10; format: functional, Urine
Rattus norvegicus [14] = experiment: Compound was tested for oral salidiuretic activity (control/drug treatment value) in rats expressed as urinary output. at a dose of 128 mg/kg; 7.33/11.50; format: functional, Urine
Rattus norvegicus [15] = experiment: Compound was tested for oral salidiuretic activity (control/drug treatment value) in rats expressed in Na+, mequiv/6 hr at a dose of 16 mg/kg; 0.205/0.350; format: functional, Urine
Rattus norvegicus [16] = experiment: Compound was tested for oral salidiuretic activity (control/drug treatment value) in rats expressed as urinary output. at a dose of 32 mg/kg; 7.33/9.17; format: functional, Urine
Rattus norvegicus [17] = experiment: Compound was tested for oral salidiuretic activity (control/drug treatment value) in rats expressed in Na+, mequiv/6 h at a dose of 64 mg/kg; 0.205/0.514; format: functional, Urine
Rattus norvegicus [18] = experiment: Compound was tested for oral salidiuretic activity (control/drug treatment value) in rats expressed as urinary output. at a dose of 16 mg/kg; 7.33/9.75; format: functional, Urine
Rattus norvegicus [19] = experiment: Compound was tested for oral salidiuretic activity (control/drug treatment value) in rats expressed in Na+, mequiv/6 hr at a dose of 32 mg/kg; 0.205/0.358; format: functional, Urine
Rattus norvegicus [20] = experiment: Compound was tested for oral salidiuretic activity (control/drug treatment value) in rats expressed in Na+, mequiv/6 h at a dose of 128 mg/kg; 0.205/0.712; format: functional, Urine
Rattus norvegicus [21] = experiment: Compound was tested for oral salidiuretic activity (control/drug treatment value) in rats expressed as urinary output. at a dose of 128 mg/kg; 7.67/6.97; format: functional, Urine
Rattus norvegicus [22] = experiment: Compound was tested for oral salidiuretic activity (control/drug treatment value) in rats expressed in Na+, mequiv/6 hr at a dose of 128 mg/kg; 0.310/0.148; format: functional, Urine
Rattus norvegicus [23] = experiment: Compound was tested for oral salidiuretic activity (control/drug treatment value) in rats expressed as urinary output. at a dose of 128 mg/kg; 8.42/6.25; format: functional, Urine
Rattus norvegicus [24] = experiment: Compound was tested for oral salidiuretic activity (control/drug treatment value) in rats expressed in Na+, mequiv/6 hr at a dose of 128 mg/kg; 0.186/0.179; format: functional, Urine
Rattus norvegicus [25] = experiment: Compound was tested for oral salidiuretic activity (control/drug treatment value) in rats expressed in Na+, mequiv/6 hr at a dose of 128 mg/kg; 0.202/0.961; format: functional, Urine
Rattus norvegicus [26] = experiment: Compound was tested for oral salidiuretic activity (control/drug treatment value) in rats expressed as urinary output. at a dose of 128 mg/kg; 7.17/11.25; format: functional, Urine

Sequence of Beta-2 adrenergic receptor (Canis lupus familiaris) (P54833 whole entry, looked up): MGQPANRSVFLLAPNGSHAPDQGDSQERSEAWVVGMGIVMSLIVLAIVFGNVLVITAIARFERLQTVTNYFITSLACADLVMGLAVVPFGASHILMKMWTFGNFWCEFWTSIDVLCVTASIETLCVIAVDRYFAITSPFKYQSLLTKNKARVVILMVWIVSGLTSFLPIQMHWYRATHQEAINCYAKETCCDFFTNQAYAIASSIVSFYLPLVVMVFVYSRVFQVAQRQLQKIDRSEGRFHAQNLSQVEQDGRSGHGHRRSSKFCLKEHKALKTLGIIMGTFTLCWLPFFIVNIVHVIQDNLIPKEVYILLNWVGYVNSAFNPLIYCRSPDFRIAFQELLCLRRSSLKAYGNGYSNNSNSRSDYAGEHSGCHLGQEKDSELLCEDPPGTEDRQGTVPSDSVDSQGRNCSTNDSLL
Sequence of Beta-1 adrenergic receptor (Homo sapiens) (P08588 whole entry, looked up): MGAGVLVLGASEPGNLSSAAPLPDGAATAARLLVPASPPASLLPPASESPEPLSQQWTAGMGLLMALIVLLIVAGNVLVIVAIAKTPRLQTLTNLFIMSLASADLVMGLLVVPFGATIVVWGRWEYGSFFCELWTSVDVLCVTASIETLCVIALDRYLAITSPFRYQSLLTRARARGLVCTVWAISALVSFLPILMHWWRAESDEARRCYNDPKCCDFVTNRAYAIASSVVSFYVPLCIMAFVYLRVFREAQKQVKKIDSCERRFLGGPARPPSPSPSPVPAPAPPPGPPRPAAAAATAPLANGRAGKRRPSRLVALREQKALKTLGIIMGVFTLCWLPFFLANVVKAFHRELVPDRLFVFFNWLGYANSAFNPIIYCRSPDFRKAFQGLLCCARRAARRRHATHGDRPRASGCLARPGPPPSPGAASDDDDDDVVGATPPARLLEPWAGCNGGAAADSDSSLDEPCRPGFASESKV

Q: What does the source list for `COC(=O)c1cc(NC(=O)c2cccs2)ccc1OCC(O)CNC(C)C` (stereo not given)?
A: ID50 [1]: > 1 mg/kg; Activity (Rattus norvegicus [2]): 0.198; Activity (Rattus norvegicus [3]): 8.17 mL; ID50 [4]: 0.25 mg/kg

Q: For `CCOC(=O)c1cc(NC(=O)Cc2ccsc2)ccc1OCC(O)CNC(C)C` (stereo not given), which ID50 [1] is on record?
A: The ID50 was greater than 1 mg/kg.

Q: What about the Activity (Rattus norvegicus [5]) of the same compound?
A: Its Activity is 0.163.

Q: What about the ID50 [4] of the same compound?
A: The ID50 was 0.02 mg/kg.

Q: And the Activity (Rattus norvegicus [6])?
A: Its Activity is 8.72 mL.

Q: Which results are given for `CCOC(=O)c1cc(NC(=O)Cc2cccs2)ccc1OCC(O)CNC(C)C` (stereo not given)?
A: Activity (Rattus norvegicus [7]): 0.163; treated urinary output (Rattus norvegicus [8]): 8.15 mL

Q: `CC(=O)c1cc(NC(=O)c2cccs2)ccc1OCC(O)CNC(C)(C)C` (stereo not given) was tested. Which ID50 [1] did it give?
A: Its ID50 is greater than 1 mg/kg.

Q: What about the Activity (Rattus norvegicus [9]) of the same compound?
A: The Activity was 0.177.

Q: What about the Activity (Rattus norvegicus [10]) of the same compound?
A: The Activity was 7.87 mL.

Q: What about the ID50 [4] of the same compound?
A: Its ID50 is 0.022 mg/kg.

Q: Which results are given for `CCOC(=O)c1cc(NC(=O)Cc2ccsc2)ccc1OCC(O)CNC(C)(C)C` (stereo not given)?
A: Activity (Rattus norvegicus [11]): 0.186; ID50 [1]: 0.38 mg/kg; Activity (Rattus norvegicus [12]): 8.42 mL; ID50 [4]: 0.015 mg/kg

Q: `CCOC(=O)c1cc(NC(=O)c2cccs2)ccc1OCC(O)CNC(C)C` (stereo not given) was tested. Which Activity (Rattus norvegicus [13]) did it give?
A: Its Activity is 7.33 mL.

Q: What about the ID50 [1] of the same compound?
A: The ID50 was 0.45 mg/kg.

Q: What about the Activity (Rattus norvegicus [14]) of the same compound?
A: Its Activity is 7.33 mL.

Q: And the ID50 [4]?
A: Its ID50 is 0.3 mg/kg.

Q: What about the Activity (Rattus norvegicus [15]) of the same compound?
A: Its Activity is 0.205.

Q: What about the Activity (Rattus norvegicus [16]) of the same compound?
A: Its Activity is 7.33 mL.

Q: And the Activity (Rattus norvegicus [17])?
A: Its Activity is 0.205.

Q: What about the Activity (Rattus norvegicus [18]) of the same compound?
A: Its Activity is 7.33 mL.

Q: And the Activity (Rattus norvegicus [19])?
A: The Activity was 0.205.

Q: And the Activity (Rattus norvegicus [20])?
A: The Activity was 0.205.

Q: What does the source list for `CC(C)(C)NCC(O)COc1ccc(NC(=O)c2cccs2)cc1C(N)=O` (stereo not given)?
A: ID50 [1]: > 1 mg/kg; Activity (Rattus norvegicus [21]): 7.67 mL; Activity (Rattus norvegicus [22]): 0.301; ID50 [4]: 0.12 mg/kg

Q: What does the source list for `CCOC(=O)c1cc(NC(=O)Cc2cccs2)ccc1OCC(O)CNC(C)(C)C` (stereo not given)?
A: ID50 [1]: 0.6 mg/kg; Activity (Rattus norvegicus [23]): 8.42 mL; ID50 [4]: 0.004 mg/kg; Activity (Rattus norvegicus [24]): 0.186

Q: What does the source list for `CCCOC(=O)c1cc(NC(=O)c2cccs2)ccc1OCC(O)CNC(C)(C)C` (stereo not given)?
A: ID50 [1]: > 1 mg/kg; Activity (Rattus norvegicus [25]): 0.202; ID50 [4]: 0.27 mg/kg; Activity (Rattus norvegicus [26]): 7.17 mL
